Literature values in patent publication US20090306023A1, “STABLE ORGANIC PEROXIDE COMPOSITIONS” (priority 2005, published 2009).

Settings: room temperature

For O=C(O)c1ccccc1O [Salicylic acid, 2-hydroxybenzoic acid], the “limit of solubility in water” value is listed as “approximately 0.2%”.
